Experimental data: ChEMBL document CHEMBL6121013, “Novel antimalarial 3-substituted quinolones isosteres with improved pharmacokinetic properties” (Eur J Med Chem, 2025)
Converted amounts (≈) assume the structure as drawn.

Legend:
Plasmodium falciparum = experiment: Antimalarial activity against chloroquine-resistant Plasmodium falciparum W2 assessed as reduction in malarial growth incubated for 72 hrs by Spectrophotometric analysis; assay type: functional, organism-based; conditions: W2, 72 h
[1] = Lipophilicity, logD of the compound at pH 7.4 by shake flask method; assay type: physicochemical; conditions: buffer
[2] = Solubility of the compound at pH 7.4; assay type: physicochemical; conditions: buffer
[3] = Plasma protein binding in human assessed as free fraction incubated for 6 hrs by LC-MS/MS analysis; assay type: ADME, cell-free
[4] = Metabolic stability in rat hepatocytes assessed as intrinsic clearance measured at 10^6 cells incubated for 5 to 120 mins by LC-MS/MS analysis; assay type: ADME, cell-based, Hepatocyte; conditions: time 5-120 min, read-out: CLH
[5] = Metabolic stability in human liver microsomes assessed as intrinsic clearance incubated for 0.5 to 30 mins by LC-MS/MS analysis; assay type: ADME, Microsome; conditions: time 0.5-30 min, read-out: CLH
[6] = Clearance in male CD1 mouse at 2 mg/kg, iv by LC-MS analysis; assay type: ADME, organism-based; conditions: in vivo
[7] = Half life in male CD1 mouse at 2 mg/kg, iv by LC-MS analysis; assay type: ADME, organism-based; conditions: in vivo
[8] = Cmax in male CD1 mouse at 50 mg/kg, po by LC-MS analysis; assay type: ADME, organism-based; conditions: in vivo
[9] = AUC in male CD1 mouse at 50 mg/kg, po by LC-MS analysis; assay type: ADME, organism-based; conditions: in vivo
[10] = Oral bioavailability in male CD1 mouse at 50 mg/kg by LC-MS analysis; assay type: ADME, organism-based; conditions: in vivo
[11] = Clearance in mouse administered intravenously; assay type: ADME; conditions: in vivo, route iv

Row | Compound | IC50 (Plasmodium falciparum) [nM] | logD [1] | solubility [2] [µM] | fraction unbound at 6 h [3] | hepatocyte CLint [4] [µL/min/1e6 cells] | microsomal CLint [5] [µL/min/mg] | other results
1 | Cc1[nH]c2c(c(=O)c1-c1ccc(Oc3ccc(OC(F)(F)F)cc3)cc1)CCCCC2 | 1520 |  |  |  |  |  | 
2 | Cc1[nH]c2c(c(=O)c1-c1ccc(-c3ccc(OC(F)(F)F)cc3)nc1)CCCC2 | 1150 |  |  |  |  |  | 
3 | Cc1[nH]c2c(c(=O)c1-c1ccc(Oc3ccc(OC(F)(F)F)cc3)cc1)COCC2 | 528 | 3.8 | 140 (≈ 58.4 µg/mL) | 0.0065 | 2.63 | < 3 | 
4 | Cc1[nH]c2c(c(=O)c1-c1ccc(Cl)cc1)CCCCC2 | 3800 |  |  |  |  |  | 
5 | Cc1[nH]c2c(c(=O)c1-c1ccc(F)cc1)CCCCC2 | 4970 |  |  |  |  |  | 
6 | Cc1[nH]c2c(c(=O)c1-c1ccc(Cl)cc1)CC(F)(F)CC2 | 235 | 2.7 | 20 (≈ 6.19 µg/mL) | 0.12 | < 1 | < 3 | clearance [6]: 0.47 mL/min/kg; half-life [7]: 6.39 h; Cmax [8]: 28900 ng/mL; AUC [9]: 405 µg·h/mL; bioavailability [10]: 23.4%
7 | Cc1[nH]c2ccccc2c(=O)c1-c1ccc(Oc2ccc(OC(F)(F)F)cc2)cc1 | 92 | 4.9 | 3 (≈ 1.23 µg/mL) | 0.0009 | 6.17 | < 3 | 
8 | Cc1[nH]c2c(c(=O)c1-c1ccc(F)cc1)CC(F)(F)CC2 | 597 | 1.7 | 68 (≈ 19.9 µg/mL) | 0.3 | < 1 | < 3 | 
9 | Cc1[nH]c2c(c(=O)c1-c1ccc(Cl)cc1)CCCC2 | 956 |  |  |  |  |  | 
10 | Cc1[nH]c2c(c(=O)c1-c1ccc(Oc3ccc(OC(F)(F)F)cc3)cc1)CCOC2 | 446 |  |  |  |  |  | 
11 | Cc1[nH]c2c(c(=O)c1-c1ccc(F)cc1)CCCC2 | 4800 |  |  |  |  |  | 
12 | Cc1[nH]c2c(c(=O)c1-c1ccc(Oc3ccc(OC(F)(F)F)cc3)cc1)CCCC2 | 157 | 4.5 | 0.2 (≈ 0.0831 µg/mL) | 0.0013 | 9.05 | < 3 | 
13 | COc1cc2[nH]c(C)c(-c3ccc(Oc4ccc(OC(F)(F)F)cc4)cc3)c(=O)c2cc1Cl |  |  |  |  |  |  | clearance [11]: 0.7 mL/min/kg
14 | Cc1[nH]c2c(c(=O)c1-c1ccc(Cl)cc1)COCC2 | > 10000 |  |  |  |  |  | 
15 | Cc1[nH]c2c(c(=O)c1-c1ccc(F)cc1)CCOC2 | 8410 |  |  |  |  |  | 
16 | Cc1[nH]c2c(c(=O)c1-c1ccc(F)cc1)COCC2 | > 10000 |  |  |  |  |  | 
17 | Cc1[nH]c2c(c(=O)c1-c1ccc(OC(F)(F)F)cc1)CCCC2 | 354 | 3.3 | 14 (≈ 4.53 µg/mL) | 0.15 | 1.14 | 25.6 | 
18 | Cc1[nH]c2c(c(=O)c1-c1ccc(Oc3ccc(OC(F)(F)F)cc3)cc1)CC(F)(F)CC2 | 285 | 3.9 | 2 (≈ 0.903 µg/mL) | 0.0029 | < 1 | < 3 | 
19 | Cc1[nH]c2c(c(=O)c1-c1ccc(-c3ccc(OC(F)(F)F)cc3)nc1)COCC2 | > 10000 |  |  |  |  |  | 
